Data: patent US9650389B2, “8-oxoprotoberberine derivative or pharmaceutically acceptable salt thereof, preparation method therefor and pharmaceutical composition for preventing or treating diseases associated with activity of NFAT5, containing same as active ingredient” (Korea Research Institute of Chemical Technology, priority 2013, dated 2017)
Like-named read-outs stand apart in the source and are kept apart here. One block for each compound: values may come before it.

What was measured:
COX1 = target: T1, COX1 (Ovis aries, UniProt P05979); assay: COX inhibition, COX assay kit (Table 4); format: biochemical
T1 construct: purchased Cayman Co. 760111
T1 sequence (P05979 25-600): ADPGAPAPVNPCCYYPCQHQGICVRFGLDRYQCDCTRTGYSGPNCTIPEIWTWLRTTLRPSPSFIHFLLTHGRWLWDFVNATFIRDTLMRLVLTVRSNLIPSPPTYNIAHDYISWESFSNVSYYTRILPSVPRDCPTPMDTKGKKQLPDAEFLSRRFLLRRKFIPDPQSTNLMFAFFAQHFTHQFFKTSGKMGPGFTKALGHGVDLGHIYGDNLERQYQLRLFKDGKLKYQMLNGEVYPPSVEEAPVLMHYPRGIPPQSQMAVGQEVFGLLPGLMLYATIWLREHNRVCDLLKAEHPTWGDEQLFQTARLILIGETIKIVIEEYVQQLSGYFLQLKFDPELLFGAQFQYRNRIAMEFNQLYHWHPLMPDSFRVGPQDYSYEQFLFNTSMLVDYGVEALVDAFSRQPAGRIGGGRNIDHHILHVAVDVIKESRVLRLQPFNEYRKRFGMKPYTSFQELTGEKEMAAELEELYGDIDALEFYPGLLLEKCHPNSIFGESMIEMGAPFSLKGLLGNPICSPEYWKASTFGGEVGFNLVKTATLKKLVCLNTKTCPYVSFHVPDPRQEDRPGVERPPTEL
Experimental: (§1) 10 μl of substrate and 10 μl of arachidonic acid were added thereto, followed by reaction for 10 minutes in the darkness. Then, OD590 was measured.

COX2 = target: T2, COX2 (Ovis aries, UniProt P79208); assay: COX inhibition, COX assay kit (Table 5); format: biochemical
T2 construct: purchased Cayman Co. 760111
T2 sequence (P79208 17-603): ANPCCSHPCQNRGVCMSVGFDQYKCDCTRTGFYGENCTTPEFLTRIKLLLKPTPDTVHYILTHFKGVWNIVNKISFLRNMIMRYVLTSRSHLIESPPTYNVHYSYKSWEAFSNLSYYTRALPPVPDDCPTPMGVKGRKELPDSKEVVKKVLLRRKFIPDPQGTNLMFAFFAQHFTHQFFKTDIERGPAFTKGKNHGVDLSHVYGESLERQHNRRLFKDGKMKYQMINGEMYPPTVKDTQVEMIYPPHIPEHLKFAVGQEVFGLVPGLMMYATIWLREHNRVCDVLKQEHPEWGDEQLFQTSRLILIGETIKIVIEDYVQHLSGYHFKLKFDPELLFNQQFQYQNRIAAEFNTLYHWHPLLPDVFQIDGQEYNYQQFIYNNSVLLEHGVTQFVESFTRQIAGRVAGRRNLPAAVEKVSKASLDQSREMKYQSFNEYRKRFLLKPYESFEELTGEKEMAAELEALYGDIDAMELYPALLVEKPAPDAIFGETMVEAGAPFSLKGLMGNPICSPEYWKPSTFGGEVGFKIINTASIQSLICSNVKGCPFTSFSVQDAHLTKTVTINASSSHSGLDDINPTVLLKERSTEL
Experimental: as §1

iNOS = assay: Inhibition of LPS-induced iNOS induction in Raw264.7 cells (Griess reagent); format: cell-based; conditions: Mus musculus, read-out: Inhibition rate of iNOS induction (%)
Experimental: To investigate whether or not the derivative of the present invention could inhibit iNOS inducement, Raw264.7 cells (mouse macrophages) were distributed in a 384-well plate at the density of 3×10^4 cells/well. The cells were treated with LPS at the concentration of 100 ng/ml, followed by culture at 37° C. for 24 hours. The concentration of […] increased in the medium was measured by using Griess reagent. The inhibition rate was calculated by mathematical formula based on the detected signals. The results are shown in Table 2. % inhibition=(mean value of sample−mean value of negative control)/(mean value of positive control −mean value of negative control)×100 [Mathematical Formula 1]

NFAT5 = target: T3, NFAT5 (Mus musculus, UniProt Q9WV30); assay: NFAT5 reporter screening (GFP, HCS) in LPS-treated Raw264.7 cells; format: cell-based; conditions: for Inhibition rate of NFAT5 transcription (%): Raw264.7 reporter, LPS 1 μg/ml, 48 hours; for inhibiting NFAT5 activity (in words): Table 3 and FIG. 1
T3 construct: endogenous in cells; host or cells: RAW264.7
T3 sequence (Q9WV30 whole entry): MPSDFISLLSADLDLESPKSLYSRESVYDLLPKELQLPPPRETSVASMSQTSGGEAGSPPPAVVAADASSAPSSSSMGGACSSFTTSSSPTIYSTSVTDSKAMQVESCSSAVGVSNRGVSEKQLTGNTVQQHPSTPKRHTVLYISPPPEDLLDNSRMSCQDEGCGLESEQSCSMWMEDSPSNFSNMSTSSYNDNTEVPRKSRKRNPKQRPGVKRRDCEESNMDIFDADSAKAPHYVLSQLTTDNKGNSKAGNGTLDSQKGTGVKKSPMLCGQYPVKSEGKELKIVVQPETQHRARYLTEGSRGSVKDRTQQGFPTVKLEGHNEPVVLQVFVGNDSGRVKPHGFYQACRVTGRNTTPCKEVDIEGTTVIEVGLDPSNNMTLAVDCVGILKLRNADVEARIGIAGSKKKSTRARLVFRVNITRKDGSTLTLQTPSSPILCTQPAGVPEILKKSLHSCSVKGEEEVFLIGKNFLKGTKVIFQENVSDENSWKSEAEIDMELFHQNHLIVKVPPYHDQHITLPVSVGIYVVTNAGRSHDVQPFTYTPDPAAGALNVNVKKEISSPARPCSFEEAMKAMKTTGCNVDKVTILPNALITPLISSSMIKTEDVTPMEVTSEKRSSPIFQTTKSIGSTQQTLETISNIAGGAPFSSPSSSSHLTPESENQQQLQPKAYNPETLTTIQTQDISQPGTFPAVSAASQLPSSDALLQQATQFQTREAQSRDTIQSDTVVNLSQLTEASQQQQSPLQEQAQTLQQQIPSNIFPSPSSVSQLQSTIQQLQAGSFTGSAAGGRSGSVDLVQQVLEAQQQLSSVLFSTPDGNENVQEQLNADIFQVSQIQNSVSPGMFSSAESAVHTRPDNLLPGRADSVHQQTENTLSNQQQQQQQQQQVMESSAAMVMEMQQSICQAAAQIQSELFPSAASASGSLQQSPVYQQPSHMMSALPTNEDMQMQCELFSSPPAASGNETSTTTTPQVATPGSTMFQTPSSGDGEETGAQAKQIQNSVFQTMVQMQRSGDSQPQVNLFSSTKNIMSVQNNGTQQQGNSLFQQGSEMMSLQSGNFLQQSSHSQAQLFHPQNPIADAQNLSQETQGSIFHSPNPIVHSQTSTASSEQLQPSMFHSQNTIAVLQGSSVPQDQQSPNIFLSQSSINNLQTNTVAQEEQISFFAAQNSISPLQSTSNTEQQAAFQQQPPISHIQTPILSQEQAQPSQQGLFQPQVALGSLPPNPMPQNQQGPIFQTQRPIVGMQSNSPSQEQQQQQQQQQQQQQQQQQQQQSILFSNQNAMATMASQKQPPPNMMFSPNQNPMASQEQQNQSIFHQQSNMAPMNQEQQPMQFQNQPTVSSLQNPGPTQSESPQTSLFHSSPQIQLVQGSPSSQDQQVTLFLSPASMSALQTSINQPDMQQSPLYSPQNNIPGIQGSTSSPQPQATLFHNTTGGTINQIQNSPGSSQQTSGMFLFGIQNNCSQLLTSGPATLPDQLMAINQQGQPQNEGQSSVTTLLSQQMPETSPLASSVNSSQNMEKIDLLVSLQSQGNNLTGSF
Experimental: To investigate whether or not the derivative of the present invention could inhibit the transcriptional activity of NFAT5, NFAT5 reporter screening was performed. A plasmid vector was constructed by eliminating CMV promoter sequence from the backbone and inserting NFAT5 binding site sequence ([…]) instead. Raw264.7 cells transfected with the vector were cultured in 10% FBS-PRMI (supplemented with 500 μg/ml G418). The cells were distributed in a 96-well plate at the density of 3×10^3 cells/well, followed by further culture for one more day. The cells were treated with LPS at the concentration of 1 μg/ml for 48 hours. Then, the cells were fixed and the expression level of GFP was measured by HCS fluorescence image (Thermo, ArrayScan^VTI).

[1] = Cytotoxicity test (WST-8), NIH 3T3; format: cell-based; conditions: mouse, NIH 3T3 embryonic fibroblast cells; NIN3T3, 24 hours
Experimental: (§2) To investigate the cytotoxicity of the derivative of the present invention, 5 kinds of cell lines (VERO: African green monkey kidney cell line, HFL-1: human embryonic lung cell line, L929: NCTC clone 929, mouse fibroblast cell line, NIH 3T3: mouse embryonic fibroblast cell line, and CHO-K1: Chinese hamster ovary cell line) were distributed in a 96-well plate at the density of 1×10^4 cells/well, which were treated with the compound of the present invention for 24 hours. The water-soluble tetrazolium salt WST-8 was added thereto. The orange colored formazan dye degraded by dehydrogenase in the live cells was read, followed by nonlinear regression to determine 50% growth inhibition concentration.

[2] = Cytotoxicity test (WST-8), VERO; format: cell-based; conditions: African green monkey, VERO kidney cells
Experimental: as §2

[3] = Cytotoxicity test (WST-8), L929; format: cell-based; conditions: mouse, L929 fibroblast cells (NCTC clone 929); L929, 24 hours
Experimental: as §2

[4] = Cytotoxicity test (WST-8), HFL-1; format: cell-based; conditions: human, HFL-1 embryonic lung cells; HFL-1, 24 hours
Experimental: as §2

[5] = Cytotoxicity test (WST-8), CHO-K1; format: cell-based; conditions: Chinese hamster, CHO-K1 ovary cells; CHO-K1, 24 hours
Experimental: as §2

[6] = Conc. 0.16 μM, two values per substance
[7] = Conc. 0.16 μM, two values per substance, read-out: inhibition rate
[8] = Conc. 0.8 μM, two values per substance
[9] = Conc. 0.8 μM, two values per substance, read-out: inhibition rate
[10] = Conc. 4 μM, two values per substance
[11] = Conc. 4 μM, two values per substance, read-out: inhibition rate
[12] = Conc. 20 μM, two values per substance
[13] = Conc. 20 μM, two values per substance, read-out: inhibition rate
[14] = Conc. 100 μM, two values per substance
[15] = Conc. 100 μM, two values per substance, read-out: inhibition rate
[16] = 1 μM, Raw264.7, LPS 100 ng/ml, 24 hours
[17] = 10 μM, Raw264.7, LPS 100 ng/ml, 24 hours

inhibition rate (COX1; [6]): 5.4 | inhibition at 0.16 µM (COX1; [7]): 3.3% | inhibition rate (COX1; [8]): 13.4 | inhibition at 0.8 µM (COX1; [9]): 12.4% | inhibition rate (COX1; [10]): 20.4 | inhibition at 4 µM (COX1; [11]): 18.4% | inhibition rate (COX1; [12]): 31.4 | inhibition at 20 µM (COX1; [13]): 24.4% | inhibition rate (COX1; [14]): 51.5 | inhibition at 100 µM (COX1; [15]): 53.5% | IC50 (COX1; Table 4): 96.3 µM | inhibition at 0.032 µM (COX2; Conc. 0.032 μM, two values per substance, read-out: inhibition rate): 0% | inhibition rate (COX2; [6]): 7.9 | inhibition at 0.16 µM (COX2; [7]): 8.8% | inhibition rate (COX2; [8]): 19.8 | inhibition at 0.8 µM (COX2; [9]): 17.2% | inhibition rate (COX2; [10]): 29.9 | inhibition at 4 µM (COX2; [11]): 28.2% | inhibition rate (COX2; [12]): 39.3 | inhibition at 20 µM (COX2; [13]): 41% | inhibition rate (COX2; [14]): 53.7 | inhibition at 100 µM (COX2; [15]): 50.3% | IC50 (COX2; Table 5): 58.4 µM
Compound: COc1ccc2cc3[n+](cc2c1OC)CCc1cc2c(cc1-3)OCO2 [Berberine]

Inhibition rate of NFAT5 transcription (%) (NFAT5; 1 μM): 13.6% | Inhibition rate of NFAT5 transcription (%) (NFAT5; 10 μM): 24.4%
Compound: COc1ccc2c(Cc3ccc(F)cc3F)c3n(c(=O)c2c1OC)CCc1cc2c(cc1-3)OCO2 [Example 2, 13-(2,4-difluorobenzyl)-9,10-dimethoxy-5H-[1,3]dioxolo[4,5-g]isoquinolino[3,2-a]isoquinoline-8(6H)-one]
inhibition at 1 µM (iNOS; [16]): 56.8% | inhibition at 10 µM (iNOS; [17]): 95.2%

Inhibition rate of NFAT5 transcription (%) (NFAT5; 1 μM): 7.4% | Inhibition rate of NFAT5 transcription (%) (NFAT5; 10 μM): 88.2%
Compound: COc1ccc2c(Cc3ccccc3C)c3n(c(=O)c2c1OC)CCc1cc2c(cc1-3)OCO2 [Example 4, 9,10-dimethoxy-13-(2-methylbenzyl)-5,6-dihydro-[1,3]dioxolo[4,5-g]isoquinolino [3,2-a]isoquinoline-8(6H)-one]
inhibition at 1 µM (iNOS; [16]): 23.2% | inhibition at 10 µM (iNOS; [17]): 97.9%

Inhibition rate of NFAT5 transcription (%) (NFAT5; 1 μM): 24.2% | Inhibition rate of NFAT5 transcription (%) (NFAT5; 10 μM): 77.6%
Compound: COc1ccccc1Cc1c2n(c(=O)c3c(OC)c(OC)ccc13)CCc1cc3c(cc1-2)OCO3 [Example 5, 9,10-dimethoxy-13-(2-methoxybenzyl)-5,6-dihydro-[1,3]dioxolo[4,5-g]isoquinolino [3,2-a]isoquinoline-8(6H)-one]
inhibition at 1 µM (iNOS; [16]): 29% | inhibition at 10 µM (iNOS; [17]): 98.3%

Inhibition rate of NFAT5 transcription (%) (NFAT5; 1 μM): 9.9% | Inhibition rate of NFAT5 transcription (%) (NFAT5; 10 μM): 67.9%
Compound: COc1ccc2c(Cc3ccccn3)c3n(c(=O)c2c1OC)CCc1cc2c(cc1-3)OCO2 [Example 6, 9,10-dimethoxy-13-(pyridine-2-ylmethyl)-5,6-dihydro-[1,3]dioxolo[4,5-g]isoquinolino [3,2-a]isoquinoline-8(6H)-one]
inhibition at 1 µM (iNOS; [16]): 7.2% | inhibition at 10 µM (iNOS; [17]): 115% | GI50 at 24 h [1]: > 100 µM | GI50 at 24 h [2]: > 100 µM | GI50 at 24 h [3]: > 100 µM | GI50 at 24 h [4]: > 100 µM | inhibiting NFAT5 activity (in words) (NFAT5): remarkably excellent in inhibiting NFAT5 activity | GI50 at 24 h [5]: > 100 µM

Compound: COc1ccc2c(Cc3nc4ccccc4[nH]3)c3n(c(=O)c2c1OC)CCc1cc2c(cc1-3)OCO2 [Example 7, 13-((1H-benzo[d]imidazole-2-yl)methyl)-9,10-dimethoxy-5,6-dihydro-[1,3]dioxolo [4,5-g]isoquinolino[3,2-a]isoquinoline-8(6H)-one]
inhibition at 1 µM (iNOS; RAW264.7, 24 h): 13.4% | inhibition at 10 µM (iNOS; RAW264.7, 24 h): 100% | Inhibition rate of NFAT5 transcription (%) (NFAT5; 1 μM): 18.5% | Inhibition rate of NFAT5 transcription (%) (NFAT5; 10 μM): 28.2%

Inhibition rate of NFAT5 transcription (%) (NFAT5; 1 μM): 0.5% | Inhibition rate of NFAT5 transcription (%) (NFAT5; 10 μM): 16.4%
Compound: COc1ccc2c(C(=O)c3ccccc3F)c3n(c(=O)c2c1OC)CCc1cc2c(cc1-3)OCO2 [Example 9, 13-(2-fluorobenzoyl)-9,10-dimethoxy-5H-[1,3]dioxolo[4,5-g]isoquinolino[3,2-a]isoquinoline-8(6H)-one]
inhibition at 1 µM (iNOS; [16]): 65.6% | inhibition at 10 µM (iNOS; [17]): 117%

Compound: CCOC(=O)c1c2n(c(=O)c3c(OC)c(OC)ccc13)CCc1cc3c(cc1-2)OCO3 [Example 10, ethyl9,10-dimethoxy-8-oxo-6,8-dihydro-5H-[1,3]dioxolo[4,5-g]isoquinolino[3,2-a]isoquinoline-13-carboxylate]
inhibition at 1 µM (iNOS; RAW264.7, 24 h): 53.9% | inhibition at 10 µM (iNOS; RAW264.7, 24 h): 99.2% | Inhibition rate of NFAT5 transcription (%) (NFAT5; 1 μM): −3.8% | Inhibition rate of NFAT5 transcription (%) (NFAT5; 10 μM): 53.7% | inhibiting NFAT5 activity (in words) (NFAT5): remarkably excellent in inhibiting NFAT5 activity

Inhibition rate of NFAT5 transcription (%) (NFAT5; 1 μM): −10.4% | Inhibition rate of NFAT5 transcription (%) (NFAT5; 10 μM): −12.8%
Compound: COc1ccc2c(C(=O)O)c3n(c(=O)c2c1OC)CCc1cc2c(cc1-3)OCO2 [Example 11, 9,10-dimethoxy-8-oxo-6,8-dihydro-5H-[1,3]dioxolo[4,5-g]isoquinolino[3,2-a]isoquinoline-13-carboxylic acid]
inhibition at 1 µM (iNOS; [16]): -17.2% | inhibition at 10 µM (iNOS; [17]): 118%

Inhibition rate of NFAT5 transcription (%) (NFAT5; 1 μM): −2.9% | Inhibition rate of NFAT5 transcription (%) (NFAT5; 10 μM): −5.2%
Compound: COc1ccc2c(C(N)=O)c3n(c(=O)c2c1OC)CCc1cc2c(cc1-3)OCO2 [Example 12, 9,10-dimethoxy-8-oxo-6,8-dihydro-5H-[1,3]dioxolo[4,5-g]isoquinolino[3,2-a]isoquinoline-13-carboxamide]
inhibition at 1 µM (iNOS; [16]): 35.4% | inhibition at 10 µM (iNOS; [17]): 107%

Inhibition rate of NFAT5 transcription (%) (NFAT5; 1 μM): −11.1% | Inhibition rate of NFAT5 transcription (%) (NFAT5; 10 μM): −29.9%
Compound: COc1ccc2c(C(=O)Nc3ccccc3F)c3n(c(=O)c2c1OC)CCc1cc2c(cc1-3)OCO2 [Example 13, N-(2-fluorophenyl)-9,10-dimethoxy-8-oxo-6,8-dihydro-5H-[1,3]dioxolo[4,5-g]isoquinolino[3,2-a]isoquinoline-13-carboxamide]
inhibition at 1 µM (iNOS; [16]): 70.8% | inhibition at 10 µM (iNOS; [17]): 106%
